What all share (format): organism-based
Settings in all cases: in vivo

For data set [1], the system named is Artemia salina. In words: Toxicity in Artemia salina.
The test system of data set [2] is Artemia salina. In words: Toxicity in Artemia salina at 200 ug/mL.
The subject of data set [3] is Artemia salina. In words: Toxicity in Artemia salina at 20 ug/mL.

Take `COC(=O)/C=C/C(=O)N[C@@H](Cc1ccc(O)c(Cl)c1)C(=O)O` [(+)-XYLARIAMIDE A]: in the data set with Artemia salina [1], the Activity entry is “Non-toxic”.

As for `COC(=O)/C=C/C(=O)N[C@H](Cc1ccc(O)c(Cl)c1)C(=O)O` [(-)-XYLARIAMIDE A], the values for the Activity with Artemia salina [2] and in the data set on Artemia salina [3] were 71% and 0%, respectively.

The record behind these values is ChEMBL document CHEMBL1158768, “Isolation and structure elucidation of the new fungal metabolite (-)-xylariamide A” (J Nat Prod, 2005).
